The conditions of data set [1]: except at very acidic pH; cited from earlier work.
Data set [2] is described as follows: Zeta potential measurements. Conditions: uncoated. Format: physicochemical. The method, then:
Zeta potential analysis was performed in on a NanoBrook ZetaPlus Zeta Plus instrument from Brookhaven Instruments.

Values after ≈ are worked out from the molar mass of the structure shown.

Our source for the solubility in water and surface charge values is US11425924B2, “Composition and method for controlled-release of amino acids” (Glanbia Nutritionals, Ltd., priority 2018, dated 2022).

Take `CC(C)C[C@H](N)C(=O)O` [Leucine (L-Leucine), L-Leucine]: the solubility in water in data set [1] was 24.3 mg/mL (≈ 185 mM). Further, the surface charge result in data set [2] is “positive charge”.
